Drawing on patent US7432260B2, “Pyrimidine compounds” (Cyclacel Limted, priority 2002, dated 2008), this text covers IC50 for six compounds.

Where two headings read alike, the source gives them in different places.

The subject of one experiment is SKUT-1. Kind of experiment: 72-h MTT cytotoxicity assay SKUT-1. Format: cell-based. Conditions: Homo sapiens, SK-UT-1, 72 h; Table 5; Leiomyosarcoma. How it is done: (§1) MTT cytotoxicity assay. […] Standard 72-h MTT (thiazolyl blue; 3-[4,5-dimethylthiazol-2-yl]-2,5-diphenyltetrazolium bromide) assays were performed (Haselsberger, K.; Peterson, D. C.; Thomas, D. G.; Darling, J. L. Anti Cancer Drugs 1996, 7, 331-8; Loveland, B. E.; Johns, T. G.; Mackay, I. R.; Vaillant, F.; Wang, Z. X.; Hertzog, P. J. Biochemistry International 1992, 27, 501-10). In short: cells were seeded into 96-well plates according to doubling time and incubated overnight at 37° C. Test compounds were made up in DMSO and a 1/3 dilution series prepared in 100 μL cell media, added to cells (in triplicates) and incubated for 72 ho at 37° C. MTT was made up as a stock of 5 mg/mL in cell media and filter-sterilised. Media was removed from cells followed by a wash with 200 μL PBS.
(§2) MTT solution was then added at 20 μL per well and incubated in the dark at 37° C. for 4 h. MTT solution was removed and cells again washed with 200 μL PBS. MTT dye was solubilised with 200 μL per well of DMSO with agitation.

Another experiment relates to Lovo. As to the kind of experiment: 72-h MTT cytotoxicity assay Lovo. Format: cell-based. Conditions: Homo sapiens, Table 5, Colon. How it is done: as §1, §2
(In general: Tetrazolium assays rely on reduction of a dye to a coloured formazan, in cell work by metabolically active cells.)

The test system of another experiment is HL60. Kind of experiment: 72-h MTT cytotoxicity assay HL60. Format: cell-based. Conditions: Homo sapiens, HL-60, 72 h; Table 5; Promyelocytic leukaemia. How it is done: as §1, §2
For the next experiment, the system named is K562. Kind of experiment: 72-h MTT cytotoxicity assay K562. Conditions: Homo sapiens, K562, 72 h; Table 5; Chronic myelogenous leukaemia. Type of experiment: cell-based. As to the method: as §1, §2
The subject of another experiment is AGS. Kind of experiment: 72-h MTT cytotoxicity assay AGS. Type of experiment: cell-based. The conditions noted are these: Homo sapiens, Table 5, Gastric adenocarcinoma. How it is done: as §1, §2
Another experiment relates to CCRF-CEM. As to the kind of experiment: 72-h MTT cytotoxicity assay CCRF-CEM. Type of experiment: cell-based. Conditions: Homo sapiens, Table 5, Leukemia. How it is done:
as §1, §2

The next experiment has as its system U2OS. Kind of experiment: 72-h MTT cytotoxicity assay U2OS. Format: cell-based. Conditions: Homo sapiens, Table 5, Bone osteosarcoma. How it is done: as §1, §2
Another experiment concerns all transformed cells. Kind of experiment: 72-h MTT cytotoxicity assay, summary over all transformed cells. The conditions noted are these: Homo sapiens. Format: cell-based. How it is done: as §1, §2
A further experiment deals with IMR-90. Kind of experiment: 72-h MTT cytotoxicity assay IMR-90. Format: cell-based. Conditions: Homo sapiens, IMR-90, 72 h; Table 5; Foetal lung fibroblast (non-transformed). How it is done:
as §1, §2

For a further experiment, the system named is Hs27. Kind of experiment: 72-h MTT cytotoxicity assay Hs27. The conditions noted are these: Homo sapiens, HS27, 72 h; Table 5; Foreskin fibroblast (non-transformed). Format: cell-based. How it is done:
as §1, §2

Experiment [1] concerns the target SAPK2a (stress-activated protein kinase 2a) (Homo sapiens, UniProt Q16539). As to the kind of experiment: Kinase assay SAPK2a. Format: biochemical. Conditions: Table 3 selectivity panel; read-out: Kinase specificity IC50 SAPK2a. How it is done:
(§3) Kinase assays. […] This was achieved by measurement of incorporation of radioactive phosphate from ATP into appropriate polypeptide substrates. Recombinant protein kinases and kinase complexes were produced or obtained commercially. Assays were performed using 96-well plates and appropriate assay buffers (typically 25 mM β-glycerophosphate, 20 mM MOPS, 5 mM EGTA, 1 mM DTT, 1 mM […], pH 7.4), into which were added 2-4 μg of active enzyme with appropriate substrates. The reactions were initiated by addition of Mg/ATP mix (15 mM MgCl2+100 μM ATP with 30-50 kBq per well of [γ-^32P]-ATP) and mixtures incubated as required at 30° C. Reactions were stopped on ice, followed by filtration through p81 filterplates or GF/C filterplates (Whatman Polyfiltronics, Kent, UK). After washing 3 times with 75 mM aq orthophosphoric acid, plates were dried, scintillant added and incorporated radioactivity measured in a scintillation counter (TopCount, Packard Instruments, Pangbourne, Berks, UK). Compounds for kinase assay were made-up as 10 mM stocks in DMSO and diluted into 10% DMSO inrassay buffer.

A further experiment has as its system Hacat. As to the kind of experiment: 72-h MTT cytotoxicity assay Hacat. Format: cell-based. Conditions: Homo sapiens, Table 5, Skin keratinocytes. How it is done:
as §1, §2

The test system of another experiment is DU-145. Kind of experiment: 72-h MTT cytotoxicity assay DU-145. Format: cell-based. Conditions: Homo sapiens, DU-145, 72 h; Table 5; Prostate. How it is done:
as §1, §2

The next experiment relates to WI38. Kind of experiment: 72-h MTT cytotoxicity assay WI38. Type of experiment: cell-based. The conditions noted are these: Homo sapiens, WI-38, 72 h; Table 5; Foetal lung fibroblast (non-transformed). As to the method:
as §1, §2

Another experiment concerns HCT-116. Kind of experiment: 72-h MTT cytotoxicity assay HCT-116. Type of experiment: cell-based. Conditions: Homo sapiens, HCT-116, 72 h; Table 5; Colon. As to the method: as §1, §2
The subject of another experiment is Hela. Kind of experiment: 72-h MTT cytotoxicity assay Hela. Type of experiment: cell-based. The conditions noted are these: Homo sapiens, Table 5, Cervix. How it is done: as §1, §2
In the next experiment the test system is Messa. As to the kind of experiment: 72-h MTT cytotoxicity assay Messa. Type of experiment: cell-based. Conditions: Homo sapiens, MES-SA, Table 5, Uterine. How it is done: as §1, §2
A further experiment deals with nci-H460. As to the kind of experiment: 72-h MTT cytotoxicity assay nci-H460. Type of experiment: cell-based. The conditions noted are these: Homo sapiens, NCI-H460, 72 h; Table 5; Lung. As to the method: as §1, §2
Experiment [2] has as its target Akt/PKB (protein kinase B) (Homo sapiens, UniProt P31749). As to the kind of experiment: Kinase assay Akt/PKB. Conditions: Table 3 selectivity panel; read-out: Kinase specificity IC50 Akt/PKB. Format: biochemical. As to the method:
as §3

The target in a further experiment is PLK-1 (Homo sapiens, UniProt P53350). Kind of experiment: Kinase assay PLK-1. Type of experiment: biochemical. How it is done: as §3
PLK-1, sequence (P53350 whole entry): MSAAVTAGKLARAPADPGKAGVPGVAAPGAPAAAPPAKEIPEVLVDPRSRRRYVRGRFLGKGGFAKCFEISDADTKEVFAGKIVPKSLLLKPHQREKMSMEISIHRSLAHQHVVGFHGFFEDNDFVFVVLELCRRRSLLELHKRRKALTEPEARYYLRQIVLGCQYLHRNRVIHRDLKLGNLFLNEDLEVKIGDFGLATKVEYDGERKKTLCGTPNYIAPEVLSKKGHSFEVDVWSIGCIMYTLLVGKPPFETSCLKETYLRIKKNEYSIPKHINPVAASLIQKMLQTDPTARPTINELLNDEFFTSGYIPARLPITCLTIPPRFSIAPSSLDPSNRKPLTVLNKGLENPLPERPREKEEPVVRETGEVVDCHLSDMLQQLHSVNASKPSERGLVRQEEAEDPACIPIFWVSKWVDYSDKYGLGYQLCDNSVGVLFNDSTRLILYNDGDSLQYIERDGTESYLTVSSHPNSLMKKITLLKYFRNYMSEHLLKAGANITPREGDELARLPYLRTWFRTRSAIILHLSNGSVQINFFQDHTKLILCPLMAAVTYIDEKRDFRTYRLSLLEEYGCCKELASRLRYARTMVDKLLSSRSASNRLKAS
In experiment [3] the target is Abl (Ableson tyrosine kinase) (Homo sapiens, UniProt P00519). As to the kind of experiment: Kinase assay Abl. Format: biochemical. The conditions noted are these: Table 3 selectivity panel; read-out: Kinase specificity IC50 Abl. As to the method: as §3
Abl (Ableson tyrosine kinase), sequence (P00519 whole entry, species assumed): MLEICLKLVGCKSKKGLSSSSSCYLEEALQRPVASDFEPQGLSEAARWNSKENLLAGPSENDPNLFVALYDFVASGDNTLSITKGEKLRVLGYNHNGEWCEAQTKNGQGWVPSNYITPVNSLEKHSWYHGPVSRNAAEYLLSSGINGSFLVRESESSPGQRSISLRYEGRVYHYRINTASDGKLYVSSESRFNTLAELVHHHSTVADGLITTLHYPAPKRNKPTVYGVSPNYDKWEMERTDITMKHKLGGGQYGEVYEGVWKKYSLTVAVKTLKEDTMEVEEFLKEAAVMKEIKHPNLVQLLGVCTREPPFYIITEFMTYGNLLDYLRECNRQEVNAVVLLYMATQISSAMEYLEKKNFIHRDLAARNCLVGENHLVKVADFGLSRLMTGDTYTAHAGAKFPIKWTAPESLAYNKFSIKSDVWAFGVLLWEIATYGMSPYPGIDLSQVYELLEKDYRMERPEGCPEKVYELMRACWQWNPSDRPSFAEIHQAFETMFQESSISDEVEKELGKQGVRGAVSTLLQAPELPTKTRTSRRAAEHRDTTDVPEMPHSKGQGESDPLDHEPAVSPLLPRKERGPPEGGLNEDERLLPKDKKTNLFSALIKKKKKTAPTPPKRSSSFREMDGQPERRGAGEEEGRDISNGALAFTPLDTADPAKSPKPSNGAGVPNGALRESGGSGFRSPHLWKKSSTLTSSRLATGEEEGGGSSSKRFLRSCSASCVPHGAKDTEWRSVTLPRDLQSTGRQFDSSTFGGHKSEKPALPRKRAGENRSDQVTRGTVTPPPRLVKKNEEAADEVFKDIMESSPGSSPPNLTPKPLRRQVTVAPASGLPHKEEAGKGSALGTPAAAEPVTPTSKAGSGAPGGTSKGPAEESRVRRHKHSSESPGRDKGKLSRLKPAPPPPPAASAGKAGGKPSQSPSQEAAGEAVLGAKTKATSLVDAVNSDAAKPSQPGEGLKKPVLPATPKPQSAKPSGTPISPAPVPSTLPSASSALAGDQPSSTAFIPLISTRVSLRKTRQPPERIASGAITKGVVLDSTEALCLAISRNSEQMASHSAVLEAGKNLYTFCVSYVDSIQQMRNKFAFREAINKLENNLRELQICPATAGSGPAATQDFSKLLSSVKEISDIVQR
Experiment [4] has as its target p70 ribosomal protein S6 kinase (Homo sapiens, UniProt P23443). As to the kind of experiment: Kinase assay p70/S6. Format: biochemical. The conditions noted are these: Table 3 selectivity panel; read-out: Kinase specificity IC50 p70/S6. How it is done:
as §3

Experiment [5] deals with CaMKII (calmodulin-depependent kinase II). As to the kind of experiment: Kinase assay CaMKII. Type of experiment: biochemical. Conditions: Table 3 selectivity panel; read-out: Kinase specificity IC50 CaMKII. As to the method: as §3
The subject of a further experiment is SKUT-1B. Kind of experiment: 72-h MTT cytotoxicity assay SKUT-1B. Type of experiment: cell-based. Conditions: Homo sapiens, Skut1B, Table 5, Leiomyosarcoma. As to the method:
as §1, §2

The target in a further experiment is CDK2/cyclin E (Homo sapiens, UniProt P24941). Kind of experiment: Kinase assay CDK2/cyclin E. Type of experiment: biochemical. The gist of the method: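 Each kinase phosphorylates a suitable polypeptide using 32P-labelled ATP (100 μM) at 30° C. Filtered, washed product is counted.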
Setting [6] is: Table 5, average over transformed cell lines, read-out: 72-h MTT IC50 Average (all transformed cells).
Where [7] appears, read: Table 5, median over transformed cell lines, read-out: 72-h MTT IC50 Median (all transformed cells).
Where [8] appears, read: Table 2, read-out: Kinase Inhibition IC50 PLK-1.
[9] abbreviates: Table 3 selectivity panel, read-out: Kinase specificity IC50 PLK1.
The mark [10] stands for this setting: Table 2, read-out: Kinase Inhibition IC50 CDK2 cyclin E.
The mark [11] stands for this setting: Table 3 selectivity panel, read-out: Kinase specificity IC50 CDK2/E.

p70 ribosomal protein S6 kinase, sequence (P23443 91-352 limits assumed): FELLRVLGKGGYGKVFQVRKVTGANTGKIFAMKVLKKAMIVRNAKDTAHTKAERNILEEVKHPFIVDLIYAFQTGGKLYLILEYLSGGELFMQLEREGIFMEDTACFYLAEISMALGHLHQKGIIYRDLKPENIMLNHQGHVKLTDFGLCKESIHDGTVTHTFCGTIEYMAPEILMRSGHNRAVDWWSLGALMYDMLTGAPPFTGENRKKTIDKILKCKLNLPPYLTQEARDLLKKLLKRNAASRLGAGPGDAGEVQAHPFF
SAPK2a (stress-activated protein kinase 2a), sequence (Q16539 whole entry, species assumed): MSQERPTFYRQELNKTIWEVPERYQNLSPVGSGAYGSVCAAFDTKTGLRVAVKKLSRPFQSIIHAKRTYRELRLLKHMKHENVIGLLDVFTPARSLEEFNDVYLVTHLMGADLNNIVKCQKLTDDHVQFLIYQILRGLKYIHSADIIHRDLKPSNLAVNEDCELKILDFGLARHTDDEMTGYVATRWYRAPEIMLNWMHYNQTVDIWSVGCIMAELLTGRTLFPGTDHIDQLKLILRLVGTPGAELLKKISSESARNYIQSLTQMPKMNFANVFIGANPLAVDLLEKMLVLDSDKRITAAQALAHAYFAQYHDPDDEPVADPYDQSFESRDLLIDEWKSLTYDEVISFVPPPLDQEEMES
Akt/PKB (protein kinase B), sequence (P31749 whole entry): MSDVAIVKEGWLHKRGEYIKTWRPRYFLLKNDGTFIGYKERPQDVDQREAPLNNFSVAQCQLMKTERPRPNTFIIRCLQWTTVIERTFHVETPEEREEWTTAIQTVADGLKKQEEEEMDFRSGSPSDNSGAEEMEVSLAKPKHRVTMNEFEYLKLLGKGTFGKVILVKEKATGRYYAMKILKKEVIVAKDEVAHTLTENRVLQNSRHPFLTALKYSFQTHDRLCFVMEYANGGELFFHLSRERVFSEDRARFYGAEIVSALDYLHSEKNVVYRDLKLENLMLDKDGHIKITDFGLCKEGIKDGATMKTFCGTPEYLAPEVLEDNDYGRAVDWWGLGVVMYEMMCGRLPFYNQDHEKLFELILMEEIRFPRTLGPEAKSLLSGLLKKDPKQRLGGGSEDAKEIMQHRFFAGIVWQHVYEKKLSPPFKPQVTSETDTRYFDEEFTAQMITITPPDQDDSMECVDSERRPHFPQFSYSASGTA

For `Cc1nc(N)sc1-c1ccnc(Nc2ccc(N3CCOCC3)cc2)n1` [Compound 1, [4-(2-Amino-4-methyl-thiazol-5-yl)-pyrimidin-2-yl]-(4-morpholin-4-yl-phenyl)-amine], the IC50 in the experiment on SKUT-1 came to 900 nM; in the experiment on Lovo, 900 nM; in the experiment on HL60, 1800 nM; in the experiment on K562, 3.8 µM; in the experiment on AGS, 1100 nM; in the experiment with CCRF-CEM it was 900 nM. The IC50 is 2100 nM in the experiment with U2OS; 1100 nM in the experiment with all transformed cells (setting [6]); 1000 nM in the experiment with all transformed cells (setting [7]); over 5 µM with IMR-90; over 5 µM with Hs27; over 100 µM in [1]. The IC50 in the experiment on Hacat was 1100 nM; in the experiment with DU-145, 1500 nM; with WI38, over 5 µM; in the experiment with HCT-116, 900 nM; with Hela, 1800 nM; with Messa, 200 nM. This compound registered an IC50 in the experiment with nci-H460 of 200 nM.

`CNc1nc(C)c(-c2ccnc(Nc3ccc(N4CCOCC4)cc3)n2)s1` [Compound 3, [4-(2-N-Methylamino-4-methyl-thiazol-5-yl)-pyrimidin-2-yl]-(4-morpholinophenyl)-amine]: the IC50 is over 100 µM in [2]; over 150 µM on PLK-1 (setting [8]); over 100 µM on PLK-1 (setting [9]); 50 µM in experiment [3]; 2.6 µM in experiment [4]; over 100 µM in experiment [1]. Further, the IC50 in [5] was over 100 µM.

For `CCNc1nc(C)c(-c2ccnc(Nc3ccc(N4CCOCC4)cc3)n2)s1` [Compound 4, [4-(2-Ethylamino-4-methyl-thiazol-5-yl)-pyrimidin-2-yl]-(4-morpholin-4-yl-phenyl)-amine], the IC50 on PLK-1 (setting [8]) is over 100 µM.

Regarding `CNc1nc(C)c(-c2ccnc(Nc3ccc(N4CCN(Cc5ccccc5)CC4)cc3)n2)s1` [Compound 11, [4-(4-Benzyl-piperazin-1-yl)-phenyl]-[4-(4-methyl-2-methylamino-thiazol-5-yl)-pyrimidin-2-yl]-amine], the IC50 is 800 nM in the experiment with SKUT-1; over 100 µM in experiment [2]; 2000 nM in the experiment with Lovo; 1700 nM with HL60; 2.1 µM in the experiment on K562; 1300 nM in the experiment with AGS. The IC50 on PLK-1 (setting [8]) is 19 µM; at PLK-1 (setting [9]) it was 19 µM; with SKUT-1B, 300 nM; in experiment [3], 72 µM; in the experiment on CCRF-CEM it was 500 nM; with U2OS it was 2300 nM. Further, the IC50 in experiment [4] was over 100 µM; in the experiment with all transformed cells (setting [6]) it was 1600 nM; in the experiment on all transformed cells (setting [7]), 1100 nM; with IMR-90, 31 µM; with Hs27, 19 µM; in experiment [1] it was over 100 µM. Further, the IC50 stood at 1000 nM in the experiment with Hacat; 1000 nM in the experiment with DU-145; 22 µM in the experiment on WI38; 600 nM in the experiment with HCT-116; 6200 nM in the experiment on Hela; 100 nM in the experiment on Messa. Moreover, the IC50 at CDK2/cyclin E (setting [10]) is 260 nM; on CDK2/cyclin E (setting [11]), 260 nM; in the experiment with nci-H460, 700 nM; in [5], 56 µM.

As to `Cc1nc(NC(=O)[C@H](N)[C@@H](C)O)sc1-c1ccnc(Nc2cccc([N+](=O)[O-])c2)n1` [Compound 15, (2R,3R)-2-Amino-3-hydroxy-N-{4-methyl-5-[2-(3-nitro-phenylamino)-pyrimidin-4-yl]-thiazol-2-yl}-butyramide], the IC50 with SKUT-1 was 900 nM; in [2] it was over 100 µM; in the experiment with Lovo, 700 nM; in the experiment with HL60, 2200 nM; in the experiment on K562, 4.6 µM; in the experiment on AGS it was 1100 nM. Besides, the IC50 was over 150 µM on PLK-1 (setting [8]); over 100 µM at PLK-1 (setting [9]); 200 nM in the experiment on SKUT-1B; 0.76 µM in experiment [3]; 2600 nM in the experiment with CCRF-CEM; 1020 nM with U2OS. Besides, the IC50 in experiment [4] was over 100 µM; with all transformed cells (setting [6]), 1200 nM; in the experiment on all transformed cells (setting [7]), 900 nM; in the experiment with IMR-90 it was 2.5 µM; in the experiment with Hs27 it was 1.7 µM; in experiment [1], over 100 µM. Also, the IC50 in the experiment on Hacat is 1500 nM; with DU-145 it was 1300 nM; with WI38 it was over 5 µM; in the experiment with HCT-116, 600 nM; in the experiment with Hela it was 700 nM; in the experiment on Messa it was 900 nM. Also, the IC50 at CDK2/cyclin E (setting [10]) was found to be 130 nM; on CDK2/cyclin E (setting [11]) it was 150 nM; with nci-H460, 1200 nM; in experiment [5], 3.9 µM.

As to `Cc1nc(C)c(-c2ccnc(Nc3ccc(NC(=O)CN4CCCC4)cc3)n2)s1` [Compound 53, N-{4-[4-(2,4-Dimethyl-thiazol-5-yl)-pyrimidin-2-ylamino]-phenyl}-2-pyrrolidin-1-yl-acetamide], on CDK2/cyclin E (setting [10]), the IC50 turned out to be 520 nM.
